# In patent US20020026053A1, “Novel 3-(substituted) -2- indolinones compounds and use thereof as inhibitors of protein kinase activity” (priority 1997, published 2002):
# Tested on: FLK-1 receptor
# Test: FLK-1 Assay (cellular/catalytic ELISA, VEGF-stimulated phosphotyrosine)
# Assay type: cell-based
# Design: concentration or dose not given beside the values
# In short: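 NIH3T3 C7#3 cells engineered to express Flk-1 were serum-starved overnight (0.1% FBS), then exposed to compound for 2 h at 37 °C (final dilution 1:200, 0.5% DMSO) before VEGF stimulation. Lysates captured on anti-FLK-1 antiserum plates; phosphotyrosine detected by UB40 antibody/POD-ABTS ELISA versus untreated controls.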
row,SMILES,Flk Kinase % Inhibition (P.110) [%]
1,Cc1c(Br)cc(Br)c2c1C(=Cc1ccc(F)cc1C(F)(F)F)C(=O)N2 [10719/H11],12.3
2,Cc1c(Br)cc(Br)c2c1C(=Cc1c(F)cc(F)cc1F)C(=O)N2 [10720/H02],9.7
3,Cc1c(Br)ccc2c1C(=Cc1ccccc1C(F)(F)F)C(=O)N2 [10736/C03],6.5
4,CNS(=O)(=O)c1ccc2c(c1)C(=Cc1cccc(Cl)c1)C(=O)N2 [10736/D06],12.2
5,Cc1c(Br)cc(Br)c2c1C(=Cc1ccc(O)cc1)C(=O)N2 [10719/H07],2.4
6,O=C1Nc2ccc(I)cc2C1=Cc1cccc(Cl)c1 [10736/B06],3.8
7,Cc1c(Br)ccc2c1C(=Cc1cccc(Cl)c1)C(=O)N2 [10736/C06],6.2
8,Cc1c(Br)cc(Br)c2c1C(=Cc1ccc(Cl)cc1Cl)C(=O)N2 [10735/H10],24.0
9,O=C1Nc2c(Br)cc(Br)cc2C1=Cc1cccc(F)c1 [10736/A07],−12.6
10,O=C1Nc2ccc(S(=O)(=O)Nc3ccc(C(F)(F)F)cc3)cc2C1=Cc1ccc(Cl)cc1 [10736/E02],8.2
11,O=C1Nc2ccc(S(=O)(=O)N3CCOCC3)cc2C1=Cc1cccc(F)c1 [10736/F07],16.6
12,CNS(=O)(=O)c1ccc2c(c1)C(=Cc1cccc(OC)c1)C(=O)N2 [10736/D10],−11.6
13,Cc1cccc(C=C2C(=O)Nc3ccc(I)cc32)c1 [10736/B04],3.0
14,O=C1Nc2ccc(S(=O)(=O)Nc3ccc(C(F)(F)F)cc3)cc2C1=Cc1cccc(F)c1 [10736/E07],15.3
15,Cc1ccc(C=C2C(=O)Nc3ccc(I)cc32)cc1 [10736/B05],−0.5
16,O=C1Nc2ccc(S(=O)(=O)Nc3ccc(C(F)(F)F)cc3)cc2C1=Cc1ccccc1C(F)(F)F [10736/E03],17.7
17,COc1cccc(C=C2C(=O)Nc3ccc(S(=O)(=O)Nc4ccc(C(F)(F)F)cc4)cc32)c1 [10736/E10],27.2
18,COc1cccc(C=C2C(=O)Nc3ccc(I)cc32)c1 [10736/B10],2.5
19,CCc1ccc(C=C2C(=O)Nc3ccc(S(=O)(=O)N4CCOCC4)cc32)cc1 [10736/F09],24.0
20,O=C1Nc2ccc(S(=O)(=O)N3CCOCC3)cc2C1=Cc1ccccc1F [10736/F08],7.4
21,CCc1ccc(C=C2C(=O)Nc3ccc(Br)c(C)c32)cc1 [10736/C09],11.2
22,O=C1Nc2ccc(I)cc2C1=Cc1ccccc1F [10736/B08],5.0
23,N#Cc1ccccc1C=C1C(=O)Nc2ccc(CCCl)cc21 [10735/G07],17.6
24,Cc1ccc(C=C2C(=O)Nc3c(Br)cc(Br)cc32)cc1 [10736/A05],−19.4
25,COc1cccc(C=C2C(=O)Nc3ccc(Br)c(C)c32)c1 [10736/C10],1.1
26,O=C1Nc2ccc(S(=O)(=O)Nc3ccc(C(F)(F)F)cc3)cc2C1=Cc1ccccc1Cl [10736/E11],20.5
27,O=C1Nc2ccc(CCCl)cc2C1=Cc1ccc(Cl)cc1Cl [10735/G10],6.8

row,SMILES,Flk Kinase % Inhibition (P.110) [%]
1,Cc1cccc(C=C2C(=O)Nc3ccc(S(=O)(=O)Nc4ccc(C(F)(F)F)cc4)cc32)c1 [10736/E04],22.6
2,COc1cccc(C=C2C(=O)Nc3c(Br)cc(Br)cc32)c1 [10736/A10],−11.0
3,Cc1c(Br)cc(Br)c2c1C(=Cc1ccc(F)cc1Cl)C(=O)N2 [10719/H09],2.5
4,O=C1Nc2c(Br)cc(Br)cc2C1=Cc1cccc(Cl)c1 [10736/A06],−18.2
5,Cc1cccc(C=C2C(=O)Nc3ccc(S(=O)(=O)N4CCOCC4)cc32)c1 [10736/F04],16.5
6,CCc1ccc(C=C2C(=O)Nc3ccc(I)cc32)cc1 [10736/B09],8.0
7,O=C1Nc2ccc(S(=O)(=O)N3CCOCC3)cc2C1=Cc1cccc(Cl)c1 [10736/F06],14.5
8,Cc1ccc(C=C2C(=O)Nc3ccc(Br)c(C)c32)cc1 [10736/C05],4.6
9,Cc1c(Br)cc(Br)c2c1C(=Cc1cccc([N+](=O)[O-])c1)C(=O)N2 [10719/H10],−0.7
10,Cc1c(Br)ccc2c1C(=Cc1cccc(F)c1)C(=O)N2 [10736/C07],4.4
11,CNS(=O)(=O)c1ccc2c(c1)C(=Cc1cccc(F)c1)C(=O)N2 [10736/D07],7.0
12,O=C1Nc2ccc(I)cc2C1=Cc1ccc(Cl)cc1 [10736/B02],1.0
13,O=C1Nc2c(Br)cc(Br)cc2C1=Cc1ccc(Cl)cc1 [10736/A02],−6.0
14,Cc1cccc(C=C2C(=O)Nc3ccc(Br)c(C)c32)c1 [10736/C04],2.8
15,Cc1c(Br)cc(Br)c2c1C(=Cc1cccc3ccccc13)C(=O)N2 [10735/H09],20.6
16,Cc1c(Br)ccc2c1C(=Cc1ccccc1Cl)C(=O)N2 [10736/C11],7.2
17,Cc1cccc(C=C2C(=O)Nc3c(Br)cc(Br)cc32)c1 [10736/A04],−13.0
18,O=C1Nc2ccc(S(=O)(=O)N3CCOCC3)cc2C1=Cc1ccccc1C(F)(F)F [10736/F03],16.6
19,O=C1Nc2ccc(I)cc2C1=Cc1ccccc1C(F)(F)F [10736/B03],11.3
20,Cc1c(Br)cc(Br)c2c1C(=Cc1ccc(N(C)C)cc1)C(=O)N2 [10719/H08],11.6
21,Cc1ccccc1C=C1C(=O)Nc2c(Br)cc(Br)c(C)c21 [10735/H02],14.5
22,Cc1c(Br)ccc2c1C(=Cc1ccccc1F)C(=O)N2 [10736/C08],3.1
23,O=C1Nc2ccc(S(=O)(=O)N3CCOCC3)cc2C1=Cc1ccc(Cl)cc1 [10736/F02],23.9
24,O=C1Nc2c(Br)cc(Br)cc2C1=Cc1ccccc1F [10736/A08],−13.4
25,O=C1Nc2ccc(CCCl)cc2C1=Cc1c(F)cccc1F [10735/G08],10.9
26,Cc1c(Br)cc(Br)c2c1C(=Cc1cc(C(F)(F)F)cc(C(F)(F)F)c1)C(=O)N2 [10735/H06],25.9
27,Cc1c(Br)cc(Br)c2c1C(=Cc1c(F)cccc1F)C(=O)N2 [10735/H08],29.1

row,SMILES,Flk Kinase % Inhibition (P.110) [%]
1,O=C1Nc2ccc(S(=O)(=O)Nc3ccc(C(F)(F)F)cc3)cc2C1=Cc1cccc(Cl)c1 [10736/E06],20.1
2,O=C1Nc2ccc(CCCl)cc2C1=Cc1ccc(-c2ccccc2)cc1 [10735/G11],10.1
3,Cc1c(Br)cc(Br)c2c1C(=Cc1ccc(F)c(F)c1)C(=O)N2 [10735/H03],7.4
4,Cc1c(Br)cc(Br)c2c1C(=Cc1cccc(C(F)(F)F)c1)C(=O)N2 [10735/H05],29.5
5,O=C1Nc2c(Br)cc(Br)cc2C1=Cc1ccccc1Cl [10736/A11],−12.4
6,O=C1Nc2ccc(I)cc2C1=Cc1ccccc1Cl [10736/B11],7.3
7,Cc1c(Br)cc(Br)c2c1C(=Cc1ccccc1C#N)C(=O)N2 [10735/H07],21.4
8,CNS(=O)(=O)c1ccc2c(c1)C(=Cc1ccccc1Cl)C(=O)N2 [10736/D11],12.5
9,CNS(=O)(=O)c1ccc2c(c1)C(=Cc1cccc(C)c1)C(=O)N2 [10736/D04],4.3
10,O=C1Nc2ccc(CCCl)cc2C1=Cc1cccc2ccccc12 [10735/G09],15.9
11,CNS(=O)(=O)c1ccc2c(c1)C(=Cc1ccccc1C(F)(F)F)C(=O)N2 [10736/D03],5.4
12,Cc1c(Br)ccc2c1C(=Cc1ccc(Cl)cc1)C(=O)N2 [10736/C02],−0.9
13,CNS(=O)(=O)c1ccc2c(c1)C(=Cc1ccc(Cl)cc1)C(=O)N2 [10736/D02],5.8
14,CCc1ccc(C=C2C(=O)Nc3ccc(S(=O)(=O)NC)cc32)cc1 [10736/D09],8.5
15,O=C1Nc2ccc(I)cc2C1=Cc1cccc(F)c1 [10736/B07],4.0
16,Cc1ccc(C=C2C(=O)Nc3ccc(S(=O)(=O)Nc4ccc(C(F)(F)F)cc4)cc32)cc1 [10736/E05],30.2
17,Cc1c(Br)cc(Br)c2c1C(=Cc1ccc(-c3ccccc3)cc1)C(=O)N2 [10735/H11],28.3
18,Cc1ccc(C=C2C(=O)Nc3ccc(S(=O)(=O)N4CCOCC4)cc32)cc1 [10736/F05],15.1
19,CCc1ccc(C=C2C(=O)Nc3c(Br)cc(Br)cc32)cc1 [10736/A09],−8.7
20,CNS(=O)(=O)c1ccc2c(c1)C(=Cc1ccccc1F)C(=O)N2 [10736/D08],11.0
21,O=C1Nc2ccc(S(=O)(=O)Nc3ccc(C(F)(F)F)cc3)cc2C1=Cc1ccccc1F [10736/E08],19.3
22,COc1cc(O)ccc1C=C1C(=O)Nc2c(Br)cc(Br)c(C)c21 [10720/H03],1.8
23,O=C1Nc2c(Br)cc(Br)cc2C1=Cc1ccccc1C(F)(F)F [10736/A03],5.7
24,Cc1c(Br)cc(Br)c2c1C(=Cc1cc(F)cc(F)c1)C(=O)N2 [10735/H04],12.8
25,CCc1ccc(C=C2C(=O)Nc3ccc(S(=O)(=O)Nc4ccc(C(F)(F)F)cc4)cc32)cc1 [10736/E09],14.1
26,CNS(=O)(=O)c1ccc2c(c1)C(=Cc1ccc(C)cc1)C(=O)N2 [10736/D05],15.2
